Measured values taken from patent US12213485B2, “Synergistic methods of using benzoxaborole compounds and preservative gases as an antimicrobial for crops” (AGROFRESH INC., priority 2016, dated 2025).

Assays:
[1] = tested on: Aspergillus brasiliensis (ASPEBR); assay: In vitro fungal growth on inoculated agar plates, benzoxaborole and CO2 chamber treatment; type: cell-based
Excerpt: (§1) The following experiments were used to determine synergy between benzoxaborole Compounds A, B, and/or C and preservative gases, such as carbon dioxide (CO2) and sulfur dioxide (SO2). Specific rates or any other unique conditions are noted within the corresponding results tables. Each experiment comprised an air-tight 36 liter (L) chamber (Fisher Scientific, P/N: 08-642-23C), fitted with a bulkhead septum port (Swagelok, P/N: SS-400-61, Solon, OH) used for treatment delivery, as well as for monitoring (using needle extraction) carbon dioxide (CO2), sulfur dioxide (SO2), oxygen (O2) or other headspace samples. A variable speed fan (Thermaltake, Mobile Fan II, P/N: A1888, Taipei City, Taiwan) set to low was also used to circulate the headspace atmosphere.
(§2) In vitro and in vivo experiments were performed concurrently in triple replicates (i.e., triplicate) unless otherwise noted. For in vitro experiments, a single 6-well microtiter plate or three, 10-cm petri plates each containing half strength Potato Dextrose Agar were prepared. Each well or plate was inoculated with 1 microliter (μL) of 1×10^5 spores/ml of the appropriate pathogenic spore suspension (e.g., Botrytis cinerea, BOTRCI; Penicillium expansum, PENIEX; Mucor piriformis, MUCOPI; Fusarium sambucinum FUSASA; or Aspergillus brasiliensis, ASPEBR). The inoculated microtiter or petri plates were then sealed with a breathable film (AeraSeal; P/N: B-100, Excel Scientific, Victorville, CA).
(§3) For treatment, the inoculated agar plates and clamshells containing fruits (e.g., strawberries and grapes) were placed inside a 36 L experimental chamber unit, which was then sealed prior to commencement of compound treatments. The chamber remained sealed throughout the duration of the experiment except for addition of treatment to the chamber, and post-treatment ventilation.
(§4) Benzoxaborole Compound A or Compound B was dissolved in acetone and dispensed onto a 60 mm Whatman #1 filter paper disk using a pipette. The acetone was permitted to evaporate for five minutes before the disk was placed on a watch glass in each chamber.
(§5) A 12% CO2 headspace treatment was then established in the chamber by permitting 10 grams (g) of crushed dry ice placed in a weigh boat in the chamber to evaporate in the sealed chamber. However, the bulkhead port of the chamber was loosened to permit the release of internal pressure. Optionally, a fan was used during the initial hours of treatment (i.e., up to about 6 hours of treatment) to ensure uniform treatment exposure of fruits and plates.
(§6) Untreated controls and CO2 treated chambers contained an acetone-treated disk with similar evaporation for five minutes. CO2 and O2 levels in the chamber were monitored using a handheld gas detector (Dansensor Checkpoint II; P/N 600111, Ringsted, Denmark). Temperature and relative humidity were also monitored within the chamber using data loggers (Onset HOBO; P/N U12-013, Bourne, MA).
(§7) The chamber for all in vitro and in vivo experiments was held at room temperature (i.e., from about 21° C. to about 23° C.) typically for about 3.5 days (i.e., about 84 hours) of treatment exposure. Chambers were then vented. After an additional 2-3 days with the chamber at room temperature, post-treatment radial growth (in mm) of each in vitro pathogen (see Examples 1-7, Tables 1-7) was measured on the inoculated plates using electronic calipers (Mitutoyo, P/N: CD-6-CX, Aurora, IL). In addition, the point of inoculation on fruits was assessed for indication of in vivo disease incidence (e.g., yes or no) and severity of disease incidence (see Examples 8-16, Tables 8-16). Disease severity was rated on a scale ranging from 0 to 4, where “0” indicated no disease severity, “1” indicated minimal disease severity, “2” indicated medium disease severity, “3” indicated high disease severity, and “4” indicated exceptionally high disease severity. […]

[2] = tested on: Botrytis cinerea (BOTRCI); assay: as above; type: cell-based
Excerpt: as §1, §2, §3, §4, §5, §6, §7

[3] = tested on: Fusarium sambucinum (FUSASA); assay: as above; type: cell-based
Excerpt: as §1, §2, §3, §4, §5, §6, §7

[4] = tested on: Mucor piriformis (MUCOPI); assay: as above; type: cell-based
Excerpt: as §1, §2, §3, §4, §5, §6, §7

[5] = tested on: Penicillium expansum (PENIEX); assay: as above; type: cell-based
Excerpt: as §1, §2, §3, §4, §5, §6, §7

[6] = tested on: Botrytis cinerea (BOTRCI) on strawberries; assay: In vivo disease severity on wound-inoculated strawberries, benzoxaborole and CO2 chamber treatment
Excerpt: as §1
For in vivo experiments, eight strawberry fruits per repetition were surface sterilized with a 70% ethanol solution. After sterilization, the strawberries were rinsed twice with deionized water. Each strawberry fruit was wounded using a T15 screwdriver tip to a uniform depth of eight mm (8 mm). Each fruit wound was inoculated with 20 μL of 1×10^5 spores/ml pathogen spore suspension of B. cinerea or M. piriformis. The strawberries were then placed with the stem facing downwards inside a 1-pound strawberry clamshell.
as §3, §4, §5, §6, §7

[7] = Table 5, compound 0.14 mg/L + 12% CO2, Colby equation E=x+y−x*y/100
[8] = Table 5, compound 0.14 mg/L + 12% CO2, evaluated 2 days after treatment, 6-well plate, fan first 6 hours, >90% R.H.
[9] = Table 5, compound alone 0.14 mg/L, evaluated 2 days after treatment, 6-well plate, fan first 6 hours, >90% R.H.
[10] = Table 1, compound 0.14 mg/L + 12% CO2, Colby equation E=x+y−x*y/100
[11] = Table 1, compound 0.14 mg/L + 12% CO2, evaluated 2 days after treatment completion, 6-well microtiter plate, 4 replicates, fan first 6 hours
[12] = Table 1, compound alone 0.14 mg/L, evaluated 2 days after treatment completion, 6-well microtiter plate, 4 replicates, fan first 6 hours
[13] = Table 3, compound 0.14 mg/L + 12% CO2, Colby equation E=x+y−x*y/100
[14] = Table 3, compound 0.14 mg/L + 12% CO2, evaluated 2 days after treatment, 6-well microtiter plate, fan first 6 hours, >90% R.H.
[15] = Table 3, compound alone 0.14 mg/L, evaluated 2 days after treatment, 6-well microtiter plate, fan first 6 hours, >90% R.H.
[16] = Table 4, compound 0.14 mg/L + 12% CO2, Colby equation E=x+y−x*y/100
[17] = Table 4, compound 0.14 mg/L + 12% CO2, evaluated 2 days after treatment completion, 6-well microtiter plate, fan first 6 hours
[18] = Table 4, compound alone 0.14 mg/L, evaluated 2 days after treatment completion, 6-well microtiter plate, fan first 6 hours

OB1OCc2cc(F)ccc21 [Compound A]
Colby Calculation [1, 7]: 108.3 | Growth (diameter, mm) Cmpd + 12% CO2 [1, 8]: 0.0 mm | Growth (diameter, mm) Cmpd [1, 9]: 2.6 mm | Colby Calculation [2, 10]: 165.4 | Growth (diameter, mm) Cmpd + 12% CO2 [2, 11]: 0.0 mm | Growth (diameter, mm) Cmpd [2, 12]: 16.3 mm | Colby Calculation [2, 13]: 101.2 | Growth (diameter, mm) Cmpd + 12% CO2 [2, 14]: 4.5 mm | Growth (diameter, mm) Cmpd [2, 15]: 5.5 mm | Colby Calculation [2, 16]: 104.3 | Growth (diameter, mm) Cmpd + 12% CO2 [2, 17]: 0.0 mm | Growth (diameter, mm) Cmpd [2, 18]: 1.5 mm | Colby Calculation [2, 7]: 102.9 | Growth (diameter, mm) Cmpd + 12% CO2 [2, 8]: 3.0 mm | Growth (diameter, mm) Cmpd [2, 9]: 3.6 mm | Colby Calculation ([2]; Table 6, compound 0.14 mg/L + 12% CO2, Colby equation E=x+y−x*y/100): 108.2 | Growth (diameter, mm) Cmpd + 12% CO2 ([2]; Table 6, compound 0.14 mg/L + 12% CO2, evaluated 3 days after treatment, 10 cm petri plates, fan continuous): 6.4 mm | Growth (diameter, mm) Cmpd ([2]; Table 6, compound alone 0.14 mg/L, evaluated 3 days after treatment, 10 cm petri plates, fan continuous): 13.2 mm | Colby Calculation [3, 7]: 104.0 | Growth (diameter, mm) Cmpd + 12% CO2 [3, 8]: 3.8 mm | Growth (diameter, mm) Cmpd [3, 9]: 5.0 mm | Colby Calculation [4, 13]: 189.0 | Growth (diameter, mm) Cmpd + 12% CO2 [4, 14]: 11.0 mm | Growth (diameter, mm) Cmpd [4, 15]: 22.3 mm | Colby Calculation [5, 10]: 225.0 | Growth (diameter, mm) Cmpd + 12% CO2 [5, 11]: 3.3 mm | Growth (diameter, mm) Cmpd [5, 12]: 17.0 mm | Colby Calculation ([5]; Table 2, compound 0.14 mg/L + 12% CO2, Colby equation E=x+y−x*y/100): 119.7 | Growth (diameter, mm) Cmpd + 12% CO2 ([5]; Table 2, compound 0.14 mg/L + 12% CO2, evaluated 2 days after treatment, 6-well microtiter plate, fan first 6 hours, >90% R.H.): 5.2 mm | Growth (diameter, mm) Cmpd ([5]; Table 2, compound alone 0.14 mg/L, evaluated 2 days after treatment, 6-well microtiter plate, fan first 6 hours, >90% R.H.): 9.7 mm | Colby Calculation [5, 16]: 124.4 | Growth (diameter, mm) Cmpd + 12% CO2 [5, 17]: 0.5 mm | Growth (diameter, mm) Cmpd [5, 18]: 6.4 mm | Colby Calculation [5, 7]: 102.5 | Growth (diameter, mm) Cmpd + 12% CO2 [5, 8]: 8.6 mm | Growth (diameter, mm) Cmpd [5, 9]: 10.2 mm | Colby Calculation ([5]; Table 7, compound 0.035 mg/L + 12% CO2, Colby equation E=x+y−x*y/100): 114.7 | Growth (diameter, mm) Cmpd + 12% CO2 ([5]; Table 7, compound 0.035 mg/L + 12% CO2, evaluated 3 days after treatment, 10 cm Petri plates, fan continuous): 4.7 mm | Growth (diameter, mm) Cmpd ([5]; Table 7, compound alone 0.035 mg/L, evaluated 3 days after treatment, 10 cm Petri plates, fan continuous): 10.6 mm | Colby Calculation ([6]; Table 8, compound 0.14 mg/L + 12% CO2, Colby equation E=x+y−x*y/100): 176.2 | Growth (Severity, 0 to 4) Cmpd + 12% CO2 ([6]; Table 8, compound 0.14 mg/L + 12% CO2, evaluated 2 days after treatment, 4 replicates, fan first 6 hours, >90% R.H.): 0.4 | Growth (Severity, 0 to 4) Cmpd ([6]; Table 8, compound alone 0.14 mg/L, evaluated 2 days after treatment, 4 replicates, fan first 6 hours, >90% R.H.): 2.1 | Colby Calculation ([6]; Table 9, compound 0.14 mg/L + 12% CO2, Colby equation E=x+y−x*y/100): 107.6 | Growth (Severity, 0 to 4) Cmpd + 12% CO2 ([6]; Table 9, compound 0.14 mg/L + 12% CO2, evaluated 3 days after treatment, fan first 6 hours, >90% R.H.): 0.8 | Growth (Severity, 0 to 4) Cmpd ([6]; Table 9, compound alone 0.14 mg/L, evaluated 3 days after treatment, fan first 6 hours, >90% R.H.): 1.1 | Colby Calculation ([6]; Table 11, compound 0.14 mg/L + 12% CO2, Colby equation E=x+y−x*y/100): 109.0 | Growth (Severity, 0 to 4) Cmpd + 12% CO2 ([6]; Table 11, compound 0.14 mg/L + 12% CO2, evaluated 2 days after treatment, fan first 6 hours, >90% R.H.): 0.8 | Growth (Severity, 0 to 4) Cmpd ([6]; Table 11, compound alone 0.14 mg/L, evaluated 2 days after treatment, fan first 6 hours, >90% R.H.): 1.4 | Colby Calculation ([6]; Table 12, compound 0.14 mg/L + 12% CO2, Colby equation E=x+y−x*y/100): 107.9 | Growth (Severity, 0 to 4) Cmpd + 12% CO2 ([6]; Table 12, compound 0.14 mg/L + 12% CO2, evaluated 2 days after treatment, fan first 6 hours, >90% R.H.): 0.4 | Growth (Severity, 0 to 4) Cmpd ([6]; Table 12, compound alone 0.14 mg/L, evaluated 2 days after treatment, fan first 6 hours, >90% R.H.): 0.7 | Colby Calculation ([6]; Table 13, compound 0.14 mg/L + 12% CO2, Colby equation E=x+y−x*y/100): 163.4 | Growth (Severity, 0 to 4) Cmpd + 12% CO2 ([6]; Table 13, compound 0.14 mg/L + 12% CO2, evaluated 3 days after treatment, fan run continuously): 1.4 | Growth (Severity, 0 to 4) Cmpd ([6]; Table 13, compound alone 0.14 mg/L, evaluated 3 days after treatment, fan run continuously): 2.4 | Colby Calculation ([6]; Table 14, compound 0.0044 mg/L + 12% CO2, Colby equation E=x+y−x*y/100): 114.8 | Growth (Severity, 0 to 4) Cmpd + 12% CO2 ([6]; Table 14, compound 0.0044 mg/L + 12% CO2, evaluated 3 days after treatment, fan continuous): 3.2 | Colby Calculation ([6]; Table 14, compound 0.0088 mg/L + 12% CO2, Colby equation E=x+y−x*y/100): 502.5 | Growth (Severity, 0 to 4) Cmpd + 12% CO2 ([6]; Table 14, compound 0.0088 mg/L + 12% CO2, evaluated 3 days after treatment, fan continuous): 0.6 | Growth (Severity, 0 to 4) Cmpd ([6]; Table 14, compound alone 0.0044 mg/L, evaluated 3 days after treatment, fan continuous): 3.4 | Growth (Severity, 0 to 4) Cmpd ([6]; Table 14, compound alone 0.0088 mg/L, evaluated 3 days after treatment, fan continuous): 3.3
